From PubChem BioAssay AID2060506 (Molecular Pharmacology Branch, DTP, NCI, 2025)
pIC50: −log10 of the molar value.

System: 598228-144-R-J1-PDC complex spheroid viability
Assay: Anticancer human tumor 598228-144-R-J1-PDC patient-derived serous endometrial adenocarcinoma cell line growth inhibition [GQUAD]
Conditions: for pIC50: curve of first compound; for viability, T/C: stronger effect = lower value
How it was run: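 Multi-cell-type spheroids of tumor cells with HUVEC and mesenchymal stem cells, treated with drug combinations. Concentrations descend in half-log steps from near clinical Cmax, or from 10 microM where Cmax is unknown; viability read-out.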

[1] = second compound 0.0316 µM, first compound 0.0316 µM
[2] = second compound 0.0316 µM, first compound 0.1 µM
[3] = second compound 0.0316 µM, first compound 0.316 µM
[4] = second compound 0.0316 µM, first compound 1 µM
[5] = second compound 0.0316 µM, first compound 3.16 µM
[6] = second compound 0.0316 µM, first compound 10 µM
[7] = second compound 0.1 µM, first compound 0.0316 µM
[8] = second compound 0.1 µM, first compound 0.1 µM
[9] = second compound 0.1 µM, first compound 0.316 µM
[10] = second compound 0.1 µM, first compound 1 µM
[11] = second compound 0.1 µM, first compound 3.16 µM
[12] = second compound 0.1 µM, first compound 10 µM
[13] = second compound 0.316 µM, first compound 0.0316 µM
[14] = second compound 0.316 µM, first compound 0.1 µM
[15] = second compound 0.316 µM, first compound 0.316 µM
[16] = second compound 0.316 µM, first compound 1 µM
[17] = second compound 0.316 µM, first compound 3.16 µM
[18] = second compound 0.316 µM, first compound 10 µM
[19] = second compound 1 µM, first compound 0.0316 µM
[20] = second compound 1 µM, first compound 0.1 µM
[21] = second compound 1 µM, first compound 0.316 µM
[22] = second compound 1 µM, first compound 1 µM
[23] = second compound 1 µM, first compound 3.16 µM
[24] = second compound 1 µM, first compound 10 µM
[25] = second compound 3.16 µM, first compound 0.0316 µM
[26] = second compound 3.16 µM, first compound 0.1 µM
[27] = second compound 3.16 µM, first compound 0.316 µM
[28] = second compound 3.16 µM, first compound 1 µM
[29] = second compound 3.16 µM, first compound 3.16 µM
[30] = second compound 3.16 µM, first compound 10 µM
[31] = second compound 10 µM, first compound 0.0316 µM
[32] = second compound 10 µM, first compound 0.1 µM
[33] = second compound 10 µM, first compound 0.316 µM
[34] = second compound 10 µM, first compound 1 µM
[35] = second compound 10 µM, first compound 3.16 µM
[36] = second compound 10 µM, first compound 10 µM
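Further: spheroids exposed to the agents for one week before reading.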
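Wherever viability, T/C is given: percent of vehicle DMSO control viability so 100% = untreated growth.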

## COc1cccc2c1C(=O)c1c(O)c3c(c(O)c1C2=O)CC(O)(C(=O)CO)CC3OC1CC(N)C(O)C(C)O1 (centres undefined) + CN(C)c1ccc(Nc2c3ccc(NC(=O)CCN4CCCC4)cc3nc3cc(NC(=O)CCN4CCCC4)ccc23)cc1
Second compound 0.0316 µM
  pIC50: 6.26
Second compound 0.1 µM
  pIC50: 6.23
Second compound 0.316 µM
  pIC50: 6.21
Second compound 1 µM
  pIC50: 6.18
Second compound 3.16 µM
  pIC50: 6.11
Second compound 10 µM
  pIC50: 6.27
[1]
  viability, T/C: 79.1%
[2]
  viability, T/C: 83.3%
[3]
  viability, T/C: 66.6%
[4]
  viability, T/C: 31%
[5]
  viability, T/C: 1.02%
[6]
  viability, T/C: 0.57%
[7]
  viability, T/C: 95.5%
[8]
  viability, T/C: 84.8%
[9]
  viability, T/C: 71%
[10]
  viability, T/C: 33.5%
[11]
  viability, T/C: 2.25%
[12]
  viability, T/C: 0.29%
[13]
  viability, T/C: 96.1%
[14]
  viability, T/C: 73.2%
[15]
  viability, T/C: 68.9%
[16]
  viability, T/C: 42.2%
[17]
  viability, T/C: 3.61%
[18]
  viability, T/C: 0.89%
[19]
  viability, T/C: 87.1%
[20]
  viability, T/C: 73.7%
[21]
  viability, T/C: 58.4%
[22]
  viability, T/C: 51.9%
[23]
  viability, T/C: 1.46%
[24]
  viability, T/C: 1.05%
[25]
  viability, T/C: 81.6%
[26]
  viability, T/C: 80.1%
[27]
  viability, T/C: 71.6%
[28]
  viability, T/C: 44.3%
[29]
  viability, T/C: 1.7%
[30]
  viability, T/C: 0.36%
[31]
  viability, T/C: 59.8%
[32]
  viability, T/C: 64.5%
[33]
  viability, T/C: 47.7%
[34]
  viability, T/C: 42.3%
[35]
  viability, T/C: 1.22%
[36]
  viability, T/C: 0.77%

## CC1COCCN1c1cc(C2(O)CC3CCC(C2)O3)c2cnn(-c3ccn[nH]3)c2n1 (centres undefined) + Cc1cnc(CNC(=O)c2c(=O)c3ccc(N4CCCN(C)CC4)nc3n3c2sc2ccccc23)cn1
Second compound 0.0316 µM
  pIC50: 7.37
Second compound 0.1 µM
  pIC50: > 7.50
Second compound 0.316 µM
  pIC50: > 7.50
Second compound 1 µM
  pIC50: > 7.50
Second compound 3.16 µM
  pIC50: > 7.50
Second compound 10 µM
  pIC50: > 7.50
[1]
  viability, T/C: 59.9%
[2]
  viability, T/C: 31.8%
[3]
  viability, T/C: 35.8%
[4]
  viability, T/C: 36.6%
[5]
  viability, T/C: 22.5%
[6]
  viability, T/C: 9.67%
[7]
  viability, T/C: 46%
[8]
  viability, T/C: 38%
[9]
  viability, T/C: 32.8%
[10]
  viability, T/C: 34.7%
[11]
  viability, T/C: 19.8%
[12]
  viability, T/C: 9.84%
[13]
  viability, T/C: 41%
[14]
  viability, T/C: 39.7%
[15]
  viability, T/C: 33%
[16]
  viability, T/C: 36.4%
[17]
  viability, T/C: 20.9%
[18]
  viability, T/C: 7.21%
[19]
  viability, T/C: 44.6%
[20]
  viability, T/C: 41.9%
[21]
  viability, T/C: 35.9%
[22]
  viability, T/C: 24%
[23]
  viability, T/C: 12.7%
[24]
  viability, T/C: 4.57%
[25]
  viability, T/C: 34.8%
[26]
  viability, T/C: 37.9%
[27]
  viability, T/C: 25.5%
[28]
  viability, T/C: 7.29%
[29]
  viability, T/C: 0.25%
[30]
  viability, T/C: 0.64%
[31]
  viability, T/C: 14.6%
[32]
  viability, T/C: 0.4%
[33]
  viability, T/C: 0.37%
[34]
  viability, T/C: 0.29%
[35]
  viability, T/C: 0.34%
[36]
  viability, T/C: 0.24%
